This note sets out measurements from patent US7704992B2, “Hepatitis C virus inhibitors” (Bristol-Myers Squibb Company, priority 2008, dated 2010).

In the first test the test system is HCV 1b-377-neo replicon cells. As to the kind of experiment: HCV Replicon assay, HCV 1b genotype. The following applies: Hepatitis C virus, class symbol, read-out: EC50 range against HCV 1b. It counts as cell-based. The procedure:
An HCV Replicon assay was utilized in the present disclosure, and was prepared, conducted and validated as described in commonly owned PCT/US2006/022197 and in O'Boyle et. al. Antimicrob Agents Chemother. 2005 April; 49(4): 1346-53.
HCV 1b-377-neo replicon cells were used to test the currently described compound series as well as cells resistant to compound A containing a Y2065H mutation in NS5A (described in application PCT/US2006/022197). The compounds tested were determined to have more than 10-fold less inhibitory activity on cells containing the mutation than wild-type cells indicating a related mechanism of action between the two compound series. Thus, the compounds of the present disclosure can be effective to inhibit the function of the HCV NS5A protein and are understood to be as effective in combinations as previously described in application PCT/US2006/022197 and commonly owned WO/04014852. Further, the compounds of the present disclosure can be effective against the HCV 1b genotype. It should also be understood that the compounds of the present disclosure can inhibit multiple genotypes of HCV. […] In one embodiment compounds of the present disclosure are active against the 1a, 1b, 2a, 2b, 3a, 4a, and 5a genotypes.
In general, EC50 refers to the concentration giving half of the maximal effect. `COC(=O)N[C@H](C(=O)N1CCC[C@H]1c1ncc(-c2ccc3c(c2)C2(CCC2)c2cc(-c4cnc([C@@H]5CCCN5C(=O)[C@@H](NC(=O)OC)C(C)C)[nH]4)ccc2-3)[nH]1)C(C)C` [Example 16, methyl ((1S)-1-(((2S)-2-(5-(7′-(2-((2S)-1-((2S)-2-((methoxycarbonyl)amino)-3-methylbutanoyl)-2-pyrrolidinyl)-1H-imidazol-5-yl)spiro[cyclobutane-1,9′-fluoren]-2′-yl)-1H-imidazol-2-yl)-1-pyrrolidinyl)carbonyl)-2-methylpropyl)carbamate]: the concentration for a half-maximal effect (EC50) lay within 0.001 to 0.1 nM.

Consider `COC(=O)N[C@@H](C)C(=O)N1CCC[C@H]1c1ncc(-c2ccc3c(c2)C2(CCC2)c2cc(-c4cnc([C@@H]5CCCN5C(=O)[C@H](C)NC(=O)OC)[nH]4)ccc2-3)[nH]1` [Example 17], for which the EC50 lay within 0.001 to 0.1 nM.

`COC(=O)N[C@H](C(=O)N1CCC[C@H]1c1ncc(-c2ccc3c(c2)oc2cc(-c4cnc([C@@H]5CCCN5C(=O)[C@@H](NC(=O)OC)C(C)C)[nH]4)ccc23)[nH]1)C(C)C` [Example 18, methyl ((1S)-1-(((2S)-2-(4-(7-(2-((2S)-1-((2S)-2-((methoxycarbonyl)amino)-3-methylbutanoyl)-2-pyrrolidinyl)-1H-imidazol-4-yl)dibenzo[b,d]furan-3-yl)-1H-imidazol-2-yl)-1-pyrrolidinyl)carbonyl)-2-methylpropyl)carbamate]: the EC50 lay within 0.001 to 0.1 nM.

Take `COC(=O)N[C@H](C(=O)N1CCC[C@H]1c1ncc(-c2ccc3c(c2)oc2cc(-c4cnc([C@@H]5CCCN5C(=O)[C@@H](NC(=O)OC)C5CC5)[nH]4)ccc23)[nH]1)C1CC1` [Example 19, dimethyl (dibenzo[b,d]furan-3,7-diylbis(1H-imidazole-4,2-diyl(2S)-2,1-pyrrolidinediyl((1S)-1-cyclopropyl-2-oxo-2,1-ethanediyl)))biscarbamate]: the concentration giving a half-maximal response (EC50) lay within 0.001 to 0.1 nM.

With `COC(=O)N[C@H](C(=O)N1CCC[C@H]1c1ncc(-c2ccc3c(c2)oc2cc(-c4cnc([C@@H]5CCCN5C(=O)[C@@H](NC(=O)OC)C(C)(C)C)[nH]4)ccc23)[nH]1)C(C)(C)C` [Example 20, methyl ((1S)-1-(((2S)-2-(4-(7-(2-((2S)-1-((2S)-2-((methoxycarbonyl)amino)-3,3-dimethylbutanoyl)-2-pyrrolidinyl)-1H-imidazol-4-yl)dibenzo[b,d]furan-3-yl)-1H-imidazol-2-yl)-1-pyrrolidinyl)carbonyl)-2,2-dimethylpropyl)carbamate], the half-maximal effective concentration (EC50) was in the range of 0.001 to 0.1 nM.

For the molecule `COC(=O)N[C@H](C(=O)N1CCC[C@H]1c1ncc(-c2ccc3c(c2)oc2cc(-c4cnc([C@@H]5CCCN5C(=O)[C@@H](NC(=O)OC)C(C)(C)O)[nH]4)ccc23)[nH]1)C(C)(C)O` [Example 21, methyl ((1S)-2-hydroxy-1-(((2S)-2-(4-(7-(2-((2S)-1-((2S)-3-hydroxy-2-((methoxycarbonyl)amino)-3-methylbutanoyl)-2-pyrrolidinyl)-1H-imidazol-4-yl)dibenzo[b,d]furan-3-yl)-1H-imidazol-2-yl)-1-pyrrolidinyl)carbonyl)-2-methylpropyl)carbamate], the half-maximal effective concentration (EC50) is 0.001 to 0.1 nM.

With `COC(=O)N[C@@H](C)C(=O)N1CCC[C@H]1c1ncc(-c2ccc3c4ccc(-c5cnc([C@@H]6CCCN6C(=O)[C@H](C)NC(=O)OC)[nH]5)cc4n(C)c3c2)[nH]1` [Example 22, methyl ((1S)-2-((2S)-2-(5-(7-(2-((2S)-1-(N-(methoxycarbonyl)-L-alanyl)-2-pyrrolidinyl)-1H-imidazol-5-yl)-9-methyl-9H-carbazol-2-yl)-1H-imidazol-2-yl)-1-pyrrolidinyl)-1-methyl-2-oxoethyl)carbamate], the EC50 lay in the range of 1 to 99 nM.

As for `COC(=O)N[C@H](C(=O)N1CCC[C@H]1c1ncc(-c2ccc3c4ccc(-c5cnc([C@@H]6CCCN6C(=O)[C@@H](NC(=O)OC)C(C)C)[nH]5)cc4n(C)c3c2)[nH]1)C(C)C` [Example 25, methyl ((1S)-1-(((2S)-2-(5-(7-(2-((2S)-1-((2S)-2-((methoxycarbonyl)amino)-3-methylbutanoyl)-2-pyrrolidinyl)-1H-imidazol-5-yl)-9-methyl-9H-carbazol-2-yl)-1H-imidazol-2-yl)-1-pyrrolidinyl)carbonyl)-2-methylpropyl)carbamate], the EC50 lay within 0.001 to 0.1 nM.

`COC(=O)N[C@@H](C)C(=O)N1CCC[C@H]1c1ncc(-c2ccc3c4ccc(-c5cnc([C@@H]6CCCN6C(=O)[C@H](C)NC(=O)OC)[nH]5)cc4n(S(=O)(=O)c4ccccc4)c3c2)[nH]1` [Example 26, methyl ((1S)-2-((2S)-2-(5-(7-(2-((2S)-1-(N-(methoxycarbonyl)-L-alanyl)-2-pyrrolidinyl)-1H-imidazol-5-yl)-9-(phenylsulfonyl)-9H-carbazol-2-yl)-1H-imidazol-2-yl)-1-pyrrolidinyl)-1-methyl-2-oxoethyl)carbamate]: the EC50 lay within 0.001 to 0.1 nM.

Take `COC(=O)N[C@H](C(=O)N1CCC[C@H]1c1ncc(-c2ccc3c4ccc(-c5cnc([C@@H]6CCCN6C(=O)[C@@H](NC(=O)OC)C(C)C)[nH]5)cc4n(S(=O)(=O)c4ccccc4)c3c2)[nH]1)C(C)C` [Example 27, methyl ((1S)-1-(((2S)-2-(5-(7-(2-((2S)-1-((2S)-2-((methoxycarbonyl)amino)-3-methylbutanoyl)-2-pyrrolidinyl)-1H-imidazol-5-yl)-9-(phenylsulfonyl)-9H-carbazol-2-yl)-1H-imidazol-2-yl)-1-pyrrolidinyl)carbonyl)-2-methylpropyl)carbamate]: the 50% effective concentration (EC50) was 0.001 to 0.1 nM.

Take `COCC[C@H](NC(=O)OC)C(=O)N1CCC[C@H]1c1ncc(-c2ccc3c4ccc(-c5cnc([C@@H]6CCCN6C(=O)[C@H](CCOC)NC(=O)OC)[nH]5)cc4n(S(=O)(=O)c4ccccc4)c3c2)[nH]1` [Example 28, methyl ((1S)-3-methoxy-1-(((2S)-2-(5-(7-(2-((2S)-1-(N-(methoxycarbonyl)-O-methyl-L-homoseryl)-2-pyrrolidinyl)-1H-imidazol-5-yl)-9-(phenylsulfonyl)-9H-carbazol-2-yl)-1H-imidazol-2-yl)-1-pyrrolidinyl)carbonyl)propyl)carbamate]: the EC50 lay in the range of 0.001 to 0.1 nM.

`COCC[C@H](NC(=O)OC)C(=O)N1CCC[C@H]1c1ncc(-c2ccc3c(c2)[nH]c2cc(-c4cnc([C@@H]5CCCN5C(=O)[C@H](CCOC)NC(=O)OC)[nH]4)ccc23)[nH]1` [Example 31, methyl ((1S)-3-methoxy-1-(((2S)-2-(5-(7-(2-((2S)-1-(N-(methoxycarbonyl)-O-methyl-L-homoseryl)-2-pyrrolidinyl)-1H-imidazol-5-yl)-9H-carbazol-2-yl)-1H-imidazol-2-yl)-1-pyrrolidinyl)carbonyl)propyl) carbamate]: the concentration for a half-maximal effect (EC50) is 1 to 99 nM.

As for `COC(=O)N[C@H](C(=O)N1CCC[C@H]1c1ncc(-c2ccc3c(c2)[nH]c2cc(-c4cnc([C@@H]5CCCN5C(=O)[C@@H](NC(=O)OC)C(C)C)[nH]4)ccc23)[nH]1)C(C)C` [Example 32], the 50% effective concentration (EC50) was 0.101 to 0.999 nM.

Consider `COCCn1c2cc(-c3cnc([C@@H]4CCCN4C(=O)[C@@H](NC(=O)OC)C(C)C)[nH]3)ccc2c2ccc(-c3cnc([C@@H]4CCCN4C(=O)[C@@H](NC(=O)OC)C(C)C)[nH]3)cc21` [Example 33, methyl ((1S)-1-(((2S)-2-(5-(7-(2-((2S)-1-((2S)-2-((methoxycarbonyl)amino)-3-methylbutanoyl)-2-pyrrolidinyl)-1H-imidazol-5-yl)-9-(2-methoxyethyl)-9H-carbazol-2-yl)-1H-imidazol-2-yl)-1-pyrrolidinyl)carbonyl)-2-methylpropyl)carbamate], for which the EC50 was 0.001 to 0.1 nM.

Still in this test, the particulars now being: Hepatitis C virus, value in nM, read-out: EC50 value against HCV 1b.
For `COC(=O)N[C@@H](C)C(=O)N1CCC[C@H]1c1ncc(-c2ccc3c(c2)[nH]c2cc(-c4cnc([C@@H]5CCCN5C(=O)[C@H](C)NC(=O)OC)[nH]4)ccc23)[nH]1` [Example 30, methyl ((1S)-2-((2S)-2-(5-(7-(2-((2S)-1-(N-(methoxycarbonyl)-L-alanyl)-2-pyrrolidinyl)-1H-imidazol-5-yl)-9H-carbazol-2-yl)-1H-imidazol-2-yl)-1-pyrrolidinyl)-1-methyl-2-oxoethyl)carbamate], the EC50 amounted to 20 nM.

The same test, now with this note: class symbol, read-out: EC50 range against HCV 1b.
Take `COC(=O)N[C@H](C(=O)N1CCC[C@H]1c1ncc(-c2ccc3c4ccc(-c5cnc([C@@H]6CCCN6C(=O)[C@@H](NC(=O)OC)[C@@H](C)OC)[nH]5)cc4n(C)c3c2)[nH]1)[C@@H](C)OC` [Example 23, methyl ((1S,2R)-2-methoxy-1-(((2S)-2-(5-(7-(2-((2S)-1-(N-(methoxycarbonyl)-O-methyl-L-threonyl)-2-pyrrolidinyl)-1H-imidazol-5-yl)-9-methyl-9H-carbazol-2-yl)-1H-imidazol-2-yl)-1-pyrrolidinyl)carbonyl)propyl) carbamate]: the EC50 fell in the range of 0.001 to 0.1 nM.

On to `COCC[C@H](NC(=O)OC)C(=O)N1CCC[C@H]1c1ncc(-c2ccc3c4ccc(-c5cnc([C@@H]6CCCN6C(=O)[C@H](CCOC)NC(=O)OC)[nH]5)cc4n(C)c3c2)[nH]1` [Example 24, methyl ((1S)-3-methoxy-1-(((2S)-2-(5-(7-(2-((2S)-1-(N-(methoxycarbonyl)-O-methyl-L-homoseryl)-2-pyrrolidinyl)-1H-imidazol-5-yl)-9-methyl-9H-carbazol-2-yl)-1H-imidazol-2-yl)-1-pyrrolidinyl)carbonyl)propyl) carbamate], for which the EC50 lay in the range of 0.101 to 0.999 nM.
